ChEMBL document CHEMBL1208760, “New antifungal peptides. Synthesis, bioassays and initial structure prediction by CD spectroscopy” (2010)

Key:
Assay type in all cases: functional
Conditions in all cases: read-out: GI
Cryptococcus neoformans [1] = experiment: Antifungal activity against Cryptococcus neoformans ATCC 32264 assessed as inhibition of fungal growth at 50 uM
Cryptococcus neoformans [2] = experiment: Antifungal activity against Cryptococcus neoformans ATCC 32264 assessed as inhibition of fungal growth at 100 uM
Candida albicans [3] = experiment: Antifungal activity against Candida albicans ATCC 10231 assessed as inhibition of fungal growth at 25 uM
Candida albicans [4] = experiment: Antifungal activity against Candida albicans ATCC 10231 assessed as inhibition of fungal growth at 50 uM
Candida albicans [5] = experiment: Antifungal activity against Candida albicans ATCC 10231 assessed as inhibition of fungal growth at 200 uM
Cryptococcus neoformans [6] = experiment: Antifungal activity against Cryptococcus neoformans ATCC 32264 assessed as inhibition of fungal growth at 12.5 uM
Candida albicans [7] = experiment: Antifungal activity against Candida albicans ATCC 10231 assessed as inhibition of fungal growth at 100 uM
Cryptococcus neoformans [8] = experiment: Antifungal activity against Cryptococcus neoformans ATCC 32264 assessed as inhibition of fungal growth at 6.25 uM
Cryptococcus neoformans [9] = experiment: Antifungal activity against Cryptococcus neoformans ATCC 32264 assessed as inhibition of fungal growth at 25 uM
Candida albicans [10] = experiment: Antifungal activity against Candida albicans ATCC 10231 assessed as inhibition of fungal growth at 12.5 uM
Cryptococcus neoformans [11] = experiment: Antifungal activity against Cryptococcus neoformans ATCC 32264 assessed as inhibition of fungal growth at 200 uM
Candida albicans [12] = experiment: Antifungal activity against Candida albicans ATCC 10231 assessed as inhibition of fungal growth at 6.25 uM

`CC[C@H](C)[C@H](NC(=O)[C@H](CCCCN)NC(=O)[C@@H](NC(=O)[C@H](CCC(N)=O)NC(=O)[C@H](CCCNC(=N)N)NC(=O)[C@H](Cc1c[nH]c2ccccc12)NC(=O)[C@H](CCCNC(=N)N)NC(=O)[C@H](Cc1ccccc1)NC(=O)[C@@H](N)Cc1cnc[nH]1)[C@@H](C)CC)C(=O)N[C@@H](Cc1c[nH]c2ccccc12)C(=O)N[C@@H](Cc1ccccc1)C(=O)N[C@@H](CCC(N)=O)C(=O)N[C@@H](CC(N)=O)C(=O)N[C@@H](CCCNC(=N)N)C(=O)N[C@@H](CCCNC(=N)N)C(=O)N[C@@H](CCSC)C(=O)N[C@@H](CCCCN)C(=O)N[C@@H](Cc1c[nH]c2ccccc12)C(=O)N[C@@H](CCCCN)C(=O)N[C@@H](CCCCN)C(N)=O` showed an inhibition of growth at 50 µM (Cryptococcus neoformans [1]) of 87.3%, an inhibition of growth at 100 µM (Cryptococcus neoformans [2]) of 100% and an inhibition of growth at 25 µM (Candida albicans [3]) of 4.86%. It also gave an inhibition of growth at 50 µM (Candida albicans [4]) of 93.4%, an inhibition of growth at 200 µM (Candida albicans [5]) of 100% and an inhibition of growth at 12.5 µM (Cryptococcus neoformans [6]) of 74.3%. For the same molecule, the inhibition of growth at 100 µM (Candida albicans [7]) was 100%, the inhibition of growth at 6.25 µM (Cryptococcus neoformans [8]) was 51% and the inhibition of growth at 25 µM (Cryptococcus neoformans [9]) was 85.9%. For the same molecule, the inhibition of growth at 12.5 µM (Candida albicans [10]) was 3.85%, the inhibition of growth at 200 µM (Cryptococcus neoformans [11]) was 100% and the inhibition of growth at 6.25 µM (Candida albicans [12]) was 0.9%.
Molecule `CC[C@H](C)[C@H](NC(=O)[C@H](CCCCN)NC(=O)[C@@H]1CCCN1C(=O)[C@H](CCC(N)=O)NC(=O)[C@@H](N)CCCNC(=N)N)C(=O)N[C@H](Cc1c[nH]c2ccccc12)C(=O)N[C@@H](Cc1ccccc1)C(=O)N1CCC[C@H]1C(=O)N[C@@H](CC(N)=O)C(=O)N[C@@H](CCCNC(=N)N)C(=O)N[C@@H](CCCNC(=N)N)C(=O)N[C@@H](CCCCN)C(=O)N1CCC[C@H]1C(=O)N[C@@H](Cc1c[nH]c2ccccc12)C(=O)N[C@@H](CCCCN)C(=O)N[C@@H](CCCCN)C(N)=O` has an inhibition of growth at 50 µM (Cryptococcus neoformans [1]) of 100%, an inhibition of growth at 100 µM (Cryptococcus neoformans [2]) of 100% and an inhibition of growth at 25 µM (Candida albicans [3]) of 15.4%. For the same molecule, the inhibition of growth at 50 µM (Candida albicans [4]) was 41.4%, the inhibition of growth at 200 µM (Candida albicans [5]) was 100% and the inhibition of growth at 12.5 µM (Cryptococcus neoformans [6]) was 100%. It also gave an inhibition of growth at 100 µM (Candida albicans [7]) of 100%, an inhibition of growth at 6.25 µM (Cryptococcus neoformans [8]) of 79.9% and an inhibition of growth at 25 µM (Cryptococcus neoformans [9]) of 100%. For the same molecule, the inhibition of growth at 12.5 µM (Candida albicans [10]) was 6.1%, the inhibition of growth at 200 µM (Cryptococcus neoformans [11]) was 100% and the inhibition of growth at 6.25 µM (Candida albicans [12]) was 0%.
In the case of `C[C@@H]1[C@H](O)[C@@H](C)/C=C/C=C/C=C/C=C/C=C/C=C/C=C/[C@H](O[C@@H]2O[C@H](C)[C@@H](O)[C@H](N)[C@@H]2O)C[C@@H]2O[C@](O)(C[C@@H](O)C[C@@H](O)[C@H](O)CC[C@@H](O)C[C@@H](O)CC(=O)O[C@H]1C)C[C@H](O)[C@H]2C(=O)O` [AMPHOTERICIN B], the inhibition of growth at 50 µM (Cryptococcus neoformans [1]) is reported as 100%, the inhibition of growth at 100 µM (Cryptococcus neoformans [2]) is reported as 100% and the inhibition of growth at 25 µM (Candida albicans [3]) is reported as 100%. It also gave an inhibition of growth at 50 µM (Candida albicans [4]) of 100%, an inhibition of growth at 200 µM (Candida albicans [5]) of 100% and an inhibition of growth at 12.5 µM (Cryptococcus neoformans [6]) of 100%. For the same molecule, the inhibition of growth at 100 µM (Candida albicans [7]) was 100%, the inhibition of growth at 6.25 µM (Cryptococcus neoformans [8]) was 100% and the inhibition of growth at 25 µM (Cryptococcus neoformans [9]) was 100%. It also gave an inhibition of growth at 12.5 µM (Candida albicans [10]) of 100%, an inhibition of growth at 200 µM (Cryptococcus neoformans [11]) of 100% and an inhibition of growth at 6.25 µM (Candida albicans [12]) of 100%.
`CC(=O)N1CCN(c2ccc(OCC3COC(Cn4ccnc4)(c4ccc(Cl)cc4Cl)O3)cc2)CC1` (configuration not stated) [KETOCONAZOLE] was tested, and the inhibition of growth at 50 µM (Cryptococcus neoformans [1]) was 100%, the inhibition of growth at 100 µM (Cryptococcus neoformans [2]) was 100% and the inhibition of growth at 25 µM (Candida albicans [3]) was 100%. For the same molecule, the inhibition of growth at 50 µM (Candida albicans [4]) was 100%, the inhibition of growth at 200 µM (Candida albicans [5]) was 100% and the inhibition of growth at 12.5 µM (Cryptococcus neoformans [6]) was 100%. For the same molecule, the inhibition of growth at 100 µM (Candida albicans [7]) was 100%, the inhibition of growth at 6.25 µM (Cryptococcus neoformans [8]) was 100% and the inhibition of growth at 25 µM (Cryptococcus neoformans [9]) was 100%. For the same molecule, the inhibition of growth at 12.5 µM (Candida albicans [10]) was 100%, the inhibition of growth at 200 µM (Cryptococcus neoformans [11]) was 100% and the inhibition of growth at 6.25 µM (Candida albicans [12]) was 100%.
With `CC[C@H](C)[C@H](NC(=O)[C@H](CCCCN)NC(=O)[C@@H](NC(=O)[C@H](CCC(N)=O)NC(=O)[C@@H](N)CCCNC(=N)N)[C@@H](C)CC)C(=O)N[C@@H](Cc1c[nH]c2ccccc12)C(=O)N[C@@H](Cc1ccccc1)C(=O)N[C@@H](CCC(N)=O)C(=O)N[C@@H](CC(N)=O)C(=O)N[C@@H](CCCNC(=N)N)C(=O)N[C@@H](CCCNC(=N)N)C(=O)N[C@@H](CCSC)C(=O)N[C@@H](CCCCN)C(=O)N[C@@H](Cc1c[nH]c2ccccc12)C(=O)N[C@@H](CCCCN)C(=O)N[C@@H](CCCCN)C(N)=O` [PENETRATIN] the inhibition of growth at 50 µM (Cryptococcus neoformans [1]) was 100%, the inhibition of growth at 100 µM (Cryptococcus neoformans [2]) was 100% and the inhibition of growth at 25 µM (Candida albicans [3]) was 91%. It also gave an inhibition of growth at 50 µM (Candida albicans [4]) of 95%, an inhibition of growth at 200 µM (Candida albicans [5]) of 100% and an inhibition of growth at 12.5 µM (Cryptococcus neoformans [6]) of 90%. For the same molecule, the inhibition of growth at 100 µM (Candida albicans [7]) was 100%, the inhibition of growth at 6.25 µM (Cryptococcus neoformans [8]) was 60% and the inhibition of growth at 25 µM (Cryptococcus neoformans [9]) was 100%. For the same molecule, the inhibition of growth at 12.5 µM (Candida albicans [10]) was 4%, the inhibition of growth at 200 µM (Cryptococcus neoformans [11]) was 100% and the inhibition of growth at 6.25 µM (Candida albicans [12]) was 0%.
H-KKWKMRRNQFWIKIQR-NH2 gave an inhibition of growth at 50 µM (Cryptococcus neoformans [1]) of 99%, an inhibition of growth at 100 µM (Cryptococcus neoformans [2]) of 100% and an inhibition of growth at 25 µM (Candida albicans [3]) of 25.8%. The inhibition of growth at 50 µM (Candida albicans [4]) was 100%, the inhibition of growth at 200 µM (Candida albicans [5]) was 100% and the inhibition of growth at 12.5 µM (Cryptococcus neoformans [6]) was 89.5%. The inhibition of growth at 100 µM (Candida albicans [7]) was 100%, the inhibition of growth at 6.25 µM (Cryptococcus neoformans [8]) was 55.9% and the inhibition of growth at 25 µM (Cryptococcus neoformans [9]) was 94.1%. For the same molecule, the inhibition of growth at 12.5 µM (Candida albicans [10]) was 12%, the inhibition of growth at 200 µM (Cryptococcus neoformans [11]) was 100% and the inhibition of growth at 6.25 µM (Candida albicans [12]) was 0%.
